According to patent EP0658547B1, “N-pyrazolyl carbamate derivative, agricultural/horticultural fungicide containing the same as active ingredient and production intermediate thereof” (MITSUBISHI CHEMICAL CORPORATION, priority 1993, dated 1995):

Experiments:
Erysiphe graminis = experiment: Preventive activity on wheat powdery mildew (foliar application, spray inoculation); type: in vivo; conditions: 200 ppm active ingredient, wettable powder, foliar application on wheat plants (var. Norin No. 61), 7 to 10 days after inoculation
Experimental: Test Example 1 Preventive activity on wheat powdery mildow
Wettable powders prepared according to the same manner as that described in Formulation Example 1 were diluted with water to the predetermined concentration and then applied by foliar application on wheat plants (var. Norin No. 61) at the 1 to 2 leaf stage grown in pots of 6 cm in diameter at a ratio of 10 ml per one pot. After the chemical solution was air-dried, a spore suspension obtained from the leaf of wheat infected with Erysiphe graminis was spray-inoculated. After inoculation, the seedling of wheat was allowed to stand at room temperature for 7 to 10 days.
For evaluation, the diseased area ratio of each leaf was measured and the preventive value was calculated from the following equation: The preventive value (%) = (average diseased area ratio in untreated plot) (- (average diseased area ratio in treated plot))/((average diseased area ratio in untreated plot))x 100 [formula]
The test compound No. cited in the Table 2 corresponds to the compound No. of Table 1.

Puccinia recondita = experiment: Preventive activity on wheat brown rust (foliar application, spray inoculation); type: in vivo; conditions: 200 ppm active ingredient, wettable powder, foliar application on wheat plants (var. Norin No. 61), moist chamber 22°C 15 hours, then 7 days
Experimental: Test Example 2 Preventive activity on wheat brown Wettable powders prepared according to the same manner as that described in Formulation Example 1 were diluted with water to the predetermined concentration and then applied by foliar application on wheat plants (var. Norin No. 61) at the 1 to 2 leaf stage grown in pots of 6 cm in diameter at a ratio of 10 ml per one pot. After the chemical solution was air-dried, a spore suspension obtained by pulverizing the leaf of wheat infected with Puccinia recondita was spray-inoculated. After inoculation, the wheat seedling was maintained in a moist chamber at 22°C for 15 hours and was allowed to stand on a water tank in a green house for 7 days. For evaluation, the diseased area ratio of each leaf was measured and the preventive value was calculated from the following equation: The preventive value (%) = (average diseased area ratio in untreated plot) (- (average diseased area ratio in treated plot))/((average diseased area ratio in untreated plot))x 100 [formula]

Compound	Preventive value 1 (%) (Erysiphe graminis)	Preventive value 2 (%) (Puccinia recondita)
COC(=O)Nc1c(OCc2cc(C)ccc2C)c(C)nn1C [compound No. 48, methyl N-{1,3-dimethyl-4-(2,5-dimethylbenzyloxy)pyrazole-5-yl} carbamate]	93	86
C#CCN(C(=O)OC)c1c(OCc2cc(C)ccc2C)c(C)nn1C [compound No. 50, methyl N-{1,3-dimethyl-4-(2,5-dimethylbenzyloxy)pyrazole-5-yl}-N-propargyl-carbamate]	100	100
C#CCN(C(=O)OC)c1c(CON=C(C)c2ccc(C(F)(F)F)cc2)c(C)nn1C [compound No. 169, methyl N-[1,3-dimethyl-4-{(α-methyl-4-trifluoromethyl-benzylidene)aminooxymethylpyrazole-5-yl}]-N-propargyl-carbamate]	100	100
